In brackets after ≈: the same amount, converted by molar mass.
The compounds below were run on Mycobacterium tuberculosis H37Rv (assay: Mycobacterium tuberculosis H37Rv Inhibition Assay). Conditions: ATCC 25618 / H37Rv, H37Rv strain (ATCC25618), Middlebrook 7H9, resazurin fluorescence, read-out: MtB MIC.
Assay type: cell-based
For `Cc1ncc(CNC2CCN(C[C@@H]3Cn4c(=O)ccc5ccc(=O)n3c54)CC2)cc1Cl.Cl` [Example 1, (1R)-1-[(4-{[(5-chloro-6-methyl-3-pyridinyl)methyl]amino}-1-piperidinyl)methyl]-1,2-dihydro-4H,9H-imidazo[1,2,3-ij]-1,8-naphthyridine-4,9-dione hydrochloride], the MIC was 0.04 µg/mL. Compound `Cc1ncc(CNC2CCN(C[C@@H]3Cn4c(=O)ccc5ncc(=O)n3c54)CC2)cc1Cl.Cl` [Example 2, (2R)-2-[(4-{[(5-chloro-6-methyl-3-pyridinyl)methyl]amino}-1-piperidinyl)methyl]-1,2-dihydro-3H,8H-2a,5,8a-triazaacenaphthylene-3,8-dione hydrochloride] has an MIC of 0.04 µg/mL. With `Cl.O=c1ccc2ncc(=O)n3c2n1C[C@H]3CN1CCC(NCc2ccc(Cl)c(Cl)c2)CC1` [Example 3, (2R)-2-[(4-{[(3,4-dichlorophenyl)methyl]amino}-1-piperidinyl)methyl]-1,2-dihydro-3H,8H-2a,5,8a-triazaacenaphthylene-3,8-dione] the MIC was 0.04 µg/mL. In the case of `Cl.O=c1ccc2ncc(=O)n3c2n1C[C@H]3CN1CCC(NCc2ccc(F)c(C(F)(F)F)c2)CC1` [Example 4, (2R)-2-{[4-({[4-fluoro-3-(trifluoromethyl)phenyl]methyl}amino)-1-piperidinyl]methyl}-1,2-dihydro-3H,8H-2a,5,8a-triazaacenaphthylene-3,8-dione hydrochloride], the MIC was 0.04 µg/mL. `Cl.N#Cc1cc(CNC2CCN(C[C@@H]3Cn4c(=O)ccc5ncc(=O)n3c54)CC2)ccc1F` [Example 5, 5-{[(1-{[(2R)-3,8-dioxo-1,2-dihydro-3H,8H-2a,5,8a-triazaacenaphthylen-2-yl]methyl}-4-piperidinyl)amino]methyl}-2-fluorobenzonitrile hydrochloride] was tested, and the MIC was 0.11 µg/mL. `Cc1cc(CNC2CCN(C[C@@H]3Cn4c(=O)ccc5ncc(=O)n3c54)CC2)ccc1F.Cl` [Example 6, (2R)-2-[(4-{[(4-fluoro-3-methylphenyl)methyl]amino}-1-piperidinyl)methyl]-1,2-dihydro-3H,8H-2a,5,8a-triazaacenaphthylene-3,8-dione hydrochloride] was tested, and the MIC was 0.29 µg/mL. `Cc1cc(CNC2CCN(C[C@@H]3Cn4c(=O)ccc5ccc(=O)n3c54)CC2)ncc1Cl.Cl` [Example 7, (1R)-1-[(4-{[(5-chloro-4-methyl-2-pyridinyl)methyl]amino}-1-piperidinyl)methyl]-1,2-dihydro-4H,9H-imidazo[1,2,3-ij]-1,8-naphthyridine-4,9-dione hydrochloride] showed an MIC of 0.3 µg/mL. With `Cc1ncc(CNC2CCN(C[C@@H]3Cn4c(=O)cnc5ccc(=O)n3c54)CC2)cc1Cl.Cl` [Example 8, (1R)-1-[(4-{[(5-chloro-6-methyl-3-pyridinyl)methyl]amino}-1-piperidinyl)methyl]-1,2-dihydro-3H,8H-2a,5,8a-triazaacenaphthylene-3,8-dione hydrochloride] the MIC was 0.08 µg/mL. `O=c1cnc2ccc(=O)n3c2n1C[C@H]3CN1CCC(NCc2ccc(Cl)c(Cl)c2)CC1` [Example 10, (1R)-1-[(4-{[(3,4-dichlorophenyl)methyl]amino}-1-piperidinyl)methyl]-1,2-dihydro-3H,8H-2a,5,8a-triazaacenaphthylene-3,8-dione] gave an MIC of under 0.02 µg/mL. `O=c1cnc2ccc(=O)n3c2n1C[C@H]3CN1CCC(NCc2ccc(C(F)(F)F)nc2)CC1` [Example 11, (1R)-1-{[4-({[6-(trifluoromethyl)-3-pyridinyl]methyl}amino)-1-piperidinyl]methyl}-1,2-dihydro-3H,8H-2a,5,8a-triazaacenaphthylene-3,8-dione] gave an MIC of 0.14 µg/mL (≈ 0.304 µM). `Cc1ncc(CNC2CCN(C[C@@H]3Cn4c(=O)ccc5ccc(=O)n3c54)CC2)cc1Br.Cl` [Example 12, (1R)-1-[(4-{[(5-bromo-6-methyl-3-pyridinyl)methyl]amino}-1-piperidinyl)methyl]-1,2-dihydro-4H,9H-imidazo[1,2,3-ij]-1,8-naphthyridine-4,9-dione hydrochloride] was tested, and the MIC was under 0.019 µg/mL. For `Cc1cc(CNC2CCN(C[C@@H]3Cn4c(=O)ccc5ccc(=O)n3c54)CC2)cnc1C` [Example 13, (1R)-1-[(4-{[(5,6-dimethyl-3-pyridinyl)methyl]amino}-1-piperidinyl)methyl]-1,2-dihydro-4H,9H-imidazo[1,2,3-ij]-1,8-naphthyridine-4,9-dione], the MIC was 1.05 µg/mL (≈ 2.5 µM). For `Cc1cc(CNC2CCN(CC3Cn4c(=O)ccc5ncc(=O)n3c54)CC2)cnc1C` (stereo not drawn) [Example 14, 2-[(4-{[(5,6-dimethyl-3-pyridinyl)methyl]amino}-1-piperidinyl)methyl]-1,2-dihydro-3H,8H-2a,5,8a-triazaacenaphthylene-3,8-dione], the MIC was 2.1 µg/mL (≈ 5 µM). For `O=c1ccc2ncc(=O)n3c2n1CC3CN1CCC(NCc2cnc(Cl)c(Cl)c2)CC1` (stereo not drawn) [Example 15, 2-[(4-{[(5,6-dichloro-3-pyridinyl)methyl]amino}-1-piperidinyl)methyl]-1,2-dihydro-3H,8H-2a,5,8a-triazaacenaphthylene-3,8-dione], the MIC was under 0.018 µg/mL. Compound `O=c1ccc2ncc(=O)n3c2n1CC3CN1CCC(NCc2ccc(Cl)c(C(F)(F)F)c2)CC1` (stereo not drawn) [Example 16, 2-{[4-({[4-chloro-3-(trifluoromethyl)phenyl]methyl}amino)-1-piperidinyl]methyl}-1,2-dihydro-3H,8H-2a,5,8a-triazaacenaphthylene-3,8-dione] has an MIC of 0.077 µg/mL (≈ 0.156 µM). Compound `O=c1ccc2ncc(=O)n3c2n1CC3CN1CCC(NCc2ccc(C(F)(F)F)nn2)CC1` (stereo not drawn) [Example 17, 2-{[4-({[6-(trifluoromethyl)-3-pyridazinyl]methyl}amino)-1-piperidinyl]methyl}-1,2-dihydro-3H,8H-2a,5,8a-triazaacenaphthylene-3,8-dione] has an MIC of 0.865 µg/mL (≈ 1.87 µM). With `O=c1ccc2ccc(=O)n3c2n1C[C@H]3CN1CCC(NCc2ccc(C(F)(F)F)nn2)CC1` [Example 18, (1R)-1-{[4-({[6-(trifluoromethyl)-3-pyridazinyl]methyl}amino)-1-piperidinyl]methyl}-1,2-dihydro-4H,9H-imidazo[1,2,3-ij]-1,8-naphthyridine-4,9-dione] the MIC was 0.432 µg/mL (≈ 0.938 µM). For `Cl.O=c1ccc2ncc(=O)n3c2n1CC3CN1CCC(NCc2ccc(C(F)(F)F)nc2)CC1` (stereo not drawn) [Example 20, 2-{[4-({[6-(trifluoromethyl)-3-pyridinyl]methyl}amino)-1-piperidinyl]methyl}-1,2-dihydro-3H,8H-2a,5,8a-triazaacenaphthylene-3,8-dione hydrochloride], the MIC was 0.311 µg/mL. With `O=c1ccc2ncc(=O)n3c2n1CC3CN1CCC(NCc2ccc(Cl)cc2)CC1` (stereo not drawn) [Example 21, 2-[(4-{[(4-chlorophenyl)methyl]amino}-1-piperidinyl)methyl]-1,2-dihydro-3H,8H-2a,5,8a-triazaacenaphthylene-3,8-dione] the MIC was 0.266 µg/mL (≈ 0.625 µM). `O=c1ccc2ncc(=O)n3c2n1CC3CN1CCC(NCc2cccc(Cl)c2)CC1` (stereo not drawn) [Example 22, 2-[(4-{[(3-chlorophenyl)methyl]amino}-1-piperidinyl)methyl]-1,2-dihydro-3H,8H-2a,5,8a-triazaacenaphthylene-3,8-dione] showed an MIC of 1.06 µg/mL (≈ 2.5 µM).

Same assay, conditions: ATCC 25618 / H37Rv, read-out: MtB MIC
`O=c1ccc2ccc(=O)n3c2n1C[C@H]3CN1CCC(NCc2ccc(C(F)(F)F)nc2)CC1` [Example 9, (1R)-1-{[4-({[6-(trifluoromethyl)-3-pyridinyl]methyl}amino)-1-piperidinyl]methyl}-1,2-dihydro-4H,9H-imidazo[1,2,3-ij]-1,8-naphthyridine-4,9-dione] showed an MIC of 0.14 µg/mL (≈ 0.305 µM).

Same assay, conditions: H37Rv inhibition assay, read-out: MIC value
For `Cc1cc(CNC2CCN(C[C@@H]3Cn4c(=O)ccc5ccc(=O)n3c54)CC2)cnc1C` [Example 13, (1R)-1-[(4-{[(5,6-dimethyl-3-pyridinyl)methyl]amino}-1-piperidinyl)methyl]-1,2-dihydro-4H,9H-imidazo[1,2,3-ij]-1,8-naphthyridine-4,9-dione], the MIC was over 1 µg/mL. In the case of `Cc1cc(CNC2CCN(CC3Cn4c(=O)ccc5ncc(=O)n3c54)CC2)cnc1C` (stereo not drawn) [Example 14, 2-[(4-{[(5,6-dimethyl-3-pyridinyl)methyl]amino}-1-piperidinyl)methyl]-1,2-dihydro-3H,8H-2a,5,8a-triazaacenaphthylene-3,8-dione], the MIC was over 1 µg/mL. Work on `O=c1ccc2ncc(=O)n3c2n1CC3CN1CCC(NCc2cccc(Cl)c2)CC1` (stereo not drawn) [Example 22, 2-[(4-{[(3-chlorophenyl)methyl]amino}-1-piperidinyl)methyl]-1,2-dihydro-3H,8H-2a,5,8a-triazaacenaphthylene-3,8-dione] yielded an MIC of over 1 µg/mL.

Source: patent publication US8097628B2, “Compounds” (Glaxo Group Limited, priority 2008, dated 2012)
